Source: paper PMC9666886, “Molecular characteristics of glutathione transferase gene family in a neglect medical Spirometra tapeworm” (Frontiers in Veterinary Science, 2022)

B1: rSmGST (Spirometra erinaceieuropaei) (protein)
chain: MGSLPVLEYWKIRGLAQAIRLLFHYLGQEYVEELYEAGGPPDFSREPWLKHKFNKGLDFPNLPYLIDDGFKITQSGAILEYVADKHGMLPTSAKERAVLHMLQNELSGFRASYGRLVYNPDFSKLKQGFLDELPQKLRLWSNYLGDKQWLTGDKIQYPDFNLYDFLDALQNLEPSCLKDFPNLQRYMKRFEDLDKIKEFQKSDAYIAHPFNNTVAAWRGDA

Columns and labels:
rSmGST [1] = biological target: T1, rSmGST (Spirometra mansoni, UniProt I1SZ68); assay: biochemical; assay type: biochemical; settings: for Ki / IC50: 4 mM GSH; for Ki: CDNB varied 0.20 to 2.0 mM, secondary plot of 1/v intercept vs inhibitor concentration; for inhibition pattern: CDNB as the variable substrate, double-reciprocal plots; for maximal slope at IC50 of fractional velocity vs log inhibitor concentration: Supplementary Figure S4; for IC50: concentration giving 50% inhibition, percent residual activity vs log inhibitor concentration, 1 mM CDNB, pH 6.5
Method: (§1) The effect of temperature on rSmGST was carried out by keeping the enzyme at different temperatures (15, 20, 25, 30, 35, 40, 45, 50, and 55°C) for 10 min, and then enzyme activity was assayed immediately. The effect of pH on rSmGST was carried out using the phosphate buffer having different pH from 5.5 to 10. Activity of enzyme was determined in 100 mM potassium phosphate buffer (pH 6.5) with 1 mM l-chloro-2,4-dinitrobenzene (CDNB) and 4 mM GSH as substrates by following the change in absorbance at 340 nm (ε 1/4 9.6 mM^−1. cm^−1) for 1 min at 30°C as previously described ([28]). In the kinetic mechanism analysis of rSmGST, double reciprocal Lineweaver-Burk plot was used to graphically determine the apparent Km and Vmax values. Inhibition studies were performed according to the procedure of Tahir et al. ([29]). Different range of concentrations of Rose Bengal (RB, 0.1–1000 μM), Cibacron Blue (CB, 0.1–1000 μM), Bromosulfophtalein (BSP, 0.1–500 μM), and Tripheniltin chloride (TPT, 0.1–100 μM) were used as inhibitors respectively. The concentration of inhibitor giving 50% inhibition (IC50) was obtained by plotting the percent of residual activity vs the log of inhibitor concentration. The Ki values for each rSmGST inhibitor were determined according to methods described in Nava et al. ([30]). To ascertain which type of reversible enzyme inhibition occurs, initial-velocity enzyme reactions in the presence of the inhibitors were performed. The rSmGST was preincubated for a few seconds in the assay buffer with 4 mM GSH and inhibitor at the corresponding concentration (CB, 10, 30 μM; TPT, 4, 8 μM; BSP, 20, 60 μM and RB, 20, 60 μM). The reaction was initiated by addition of one of a range of 0.20 to 2.0 mM of different concentrations of CDNB. A set of reactions under identical conditions was performed for each inhibitor concentration and for the non-inhibitor control.

rSmGST [2] = biological target: T1, rSmGST; assay: Enzyme kinetics of rSmGST with the substrates GSH and CDNB (Lineweaver-Burk plot); assay type: biochemical; settings: for saturation point (substrate concentration): no further increase in enzyme activity above this concentration
Method: as §1

[3] = substrate: N[C@@H](CCC(=O)N[C@@H](CS)C(=O)NCC(=O)O)C(=O)O; assay: as above; assay type: biochemical, Spirometra mansoni; settings: other: Lineweaver-Burk plot; GSH 0.5–5.0 mM or CDNB 0.2–2.0 mM as varied substrate; pH 6.5
Method: as §1, with “To ascertain which type of reversible enzyme inhibition occurs, initial-velocity enzyme reactions in the presence of the inhibitors were performed. The rSmGST was preincubated for a few seconds in the assay buffer with 4 mM GSH and inhibitor at the corresponding concentration (CB, 10, 30 μM; TPT, 4, 8 μM; BSP, 20, 60 μM and RB, 20, 60 μM). The reaction was initiated by addition of one of a range of 0.20 to 2.0 mM of different concentrations of CDNB. A set of reactions under identical conditions was performed for each inhibitor concentration and for the non-inhibitor control.” left out

[4] = Lineweaver-Burk plot, GSH 0.5–5.0 mM or CDNB 0.2–2.0 mM as varied substrate

Molecule | Ki (rSmGST [1]) [µM] | inhibition pattern (rSmGST [1]) | maximal slope at IC50 of fractional velocity vs log inhibitor concentration (rSmGST [1]) | IC50 (rSmGST [1]) [µM] | other results
Nc1c(S(=O)(=O)O)cc(Nc2ccc(Nc3nc(Cl)nc(Nc4ccccc4S(=O)(=O)O)n3)c(S(=O)(=O)O)c2)c2c1C(=O)c1ccccc1C2=O [Cibacron Blue] | 20.1 | uncompetitive | −0.51 | 11.7 | –
O=[N+]([O-])c1ccc(Cl)c([N+](=O)[O-])c1 [CDNB, 1-chloro-2,4-dinitrobenzene] | – | – | – | – | specific activity of rSmGST toward substrate (rSmGST [2]): 3.12 µmol/min/mg; Km (rSmGST [2]; [4]): 6.29 mM; Vmax (rSmGST [2]; [4]): 10.120 µmol/min/mL; saturation point (substrate concentration) (rSmGST [2]): 1.6 mM
N[C@@H](CCC(=O)N[C@@H](CS)C(=O)NCC(=O)O)C(=O)O [GSH, glutathione] | – | – | – | – | saturation point (substrate concentration) (rSmGST [2]): 4.0 mM
[Cl][Sn]([c]1ccccc1)([c]1ccccc1)[c]1ccccc1 [Tripheniltin chloride] | 11.7 | non-competitive | −0.59 | 12.1 | –
O=C1OC(c2ccc(O)c(S(=O)(=O)O)c2)(c2ccc(O)c(S(=O)(=O)O)c2)c2c(Br)c(Br)c(Br)c(Br)c21 [Bromosulfophtalein] | 122 | non-competitive | −0.27 | 290 | –
O=C([O-])c1c(Cl)c(Cl)c(Cl)c(Cl)c1-c1c2cc(I)c(=O)c(I)c-2oc2c(I)c([O-])c(I)cc12.[Na+].[Na+] [Rose Bengal] | 57.6 | uncompetitive | −0.63 | 34 | –
B1 | – | – | – | – | Km [3]: 0.78 mM; Vmax [3]: 1.146 µmol/min/mL
